Laboratory results reported in US5593835A, “Methods and kits for RNA binding compounds” (President and Fellows of Harvard College, priority 1995, dated 1997).
Read-outs that look alike come from different tables or passages of the source.

Tests used:
[1] = biological target: TAR region of HIV RNA; experiment: Fluorescence binding and competitive binding to TAR RNA; settings: competition, 100 nM RNA, 15 nM fluorescent tobramycin, 20° C., pH 7.4; read-out: Dissociation Constant (KD) TAR RNA
Description: In order to quantitatively determine whether fluorescently labelled tobramycin and other antibiotics bind directly to the RRE region and/or to other regions of the HIV RNA, and with what affinity, the RRE and TAR regions of HIV RNA were prepared and used in the method of the invention as target RNAs.
In other competitive binding studies, TAR or RRE RNA was added at a constant concentration of 100 nM±5% and PYT at 15 nM. Different concentrations of competitive antibiotic (tobramycin (o-60 μM), gentamicin C (0-100 μM), neomycin B (0-4 μM), or lividomycin A (0-100 μM) or Rev protein (0-6 μM) were mixed with constant concentrations of RNA (100 nM TAR or RRE) and C1PYT (15 nM), in Binding buffer (140 mM NaCl, 5 mM KCl, 1 mM MgCl2, 20 mM HEPES, pH 7.4), 2 ml total volume, for 1-5 min. at 20° C. in a semimicrocell cuvette. The fluorescence was measured on a Perkin-Elmer Model 512 double beam fluorescence spectrophotometer. The excitation wavelength used was 330 nm. The intensities of fluorescence emission at 390 nm were used to calculate dissociation constants. Generally 8 to 12 points were used for calculation.
Competition binding measurements of antibiotics with RNA and PYT were performed at constant concentrations of PYT and RNA by monitoring fluorescence intensity changes as a function of changing concentrations of the antibiotics (a standard fluorescence curve). […]

[2] = biological target: W13 RNA having SEQ ID NO:1; experiment: Fluorescence (PYT quenching) titration and competition binding to W13 RNA; settings: fluorescence; competition with PYT (150 nM PYT, 300 nM W13), 20° C., pH 7.4; N.B. = no measurable binding
Description: To study the binding behavior of clone W13, a fluorescently labelled pyrene-conjugated tobramycin derivative "PYT" was prepared.
For competitive binding studies, different concentrations of antibiotic (glucosamine (0-10 mM), erythromycin (0-6 mM), gentamicin C (0-700 μM), or neomycin B (0-650 μM)), were mixed with constant concentrations of RNA (300 nM W13) and PYT (150 nM), in Binding buffer (140 mM NaCl, 5 mM KCl, 1 mM MgCl2, 1 mM CaCl2, 20 mM HEPES, pH 7.4), 750 μl total volume, for 1-5 min. at 20° C. in a semimicro-cell cuvette. The fluorescence was measured on a Perkin-Elmer Model 512 double beam fluorescence spectrophotometer. The excitation wavelength used was 341 nm. The intensities of fluorescence emission at 380 nm were used to calculate dissociation constants. Generally 8 to 10 points were used for calculation.
(§1) Steady state fluorescence measurements were performed on a double beam fluorescence spectrometer (Perkin-Elmer Model 512, Norwalk, Conn.). The excitation wavelength was 341 nm. All measurements were done at 20° C. in 140 mM NaCl, 5 mM KCl, 1 mM CaCl2, 1 mM MgCl2, and 20 mM HEPES, pH 7.4. The KD of the PYT and the RNA aptamer was calculated by the curve fitting of the fluorescence intensity as a function of RNA concentration, using the following equation
(assuming a 1:1 complex): I=Io +0.5Δε ([PYT]o
-(([PYT]o +[RNA]o KI)^2 -4[PYT]o [RNA]o)^0.5)
(§2) Competition binding measurements of antibiotics with RNA and PYT were performed at constant concentrations of PYT and RNA by monitoring fluorescence intensity changes as a function of changing concentrations of the antibiotics (a standard fluorescence curve). The KD s for the antibiotics were calculated by the curve fitting of the fluorescence intensity of PYT as a function of antibiotic concentration, using the following equation:
I=Io +Δε[PYT.circle-solid.RNA]
[PYT.circle-solid.RNA]=0.5(([PYT]o +[RNA]o)([RNA]o
+KD)+KI ([T]o +[RNA]o +KD)-((([PYT]o
+[RNA]o)([RNA]o +KD)+KI ([T]o +[RNA]o
+KD))^2 -4([RNA]o +KD) [PYT]o [RNA]o
([RNA]o +KD))^0.5)([RNA]o +KD) (equation 2)
KD and KI are the dissociation constants for the antibiotic and PYT respectively.
[T]o is the total concentration of antibiotic added. Measurements were taken at least twice for each measured KD.

[3] = biological target: J6a1 RNA (SEQ ID NO: 5), synthetically derived from the predicted structures; experiment: Fluorescence binding measurements, J6a1 RNA
Description: (§3) The binding of tobramycin to two cloned RNAs X1 (SEQ ID NO:2) and J6 (SEQ ID NO:5), representative of both classes of consensus sequences, was measured using the fluorescence techniques described in the exemplification.
(§4) *synthetically derived from the predicted structures
as §1
as §2, with “equation: […]” for “equation:”

[4] = biological target: X1 RNA (SEQ ID NO: 3 in Table 3; SEQ ID NO:2 in text); experiment: Fluorescence binding measurements, X1 RNA
Description: as §3, §1
as §2, with “equation: […]” for “equation:”

[5] = biological target: X1s1 RNA (SEQ ID NO: 3), synthetically derived from the predicted structures; experiment: Fluorescence binding measurements, X1s1 RNA
Description: as §3, §4, §1
as §2, with “equation: […]” for “equation:”

[6] = K1 - high affinity, read-out: Dissociation Constants K1(TOB)
[7] = K2 - low affinity, read-out: Dissociation Constants K2(TOB)

`NC[C@H]1O[C@H](O[C@H]2[C@H](O)[C@@H](O[C@H]3O[C@H](CO)[C@@H](O)[C@H](N)[C@H]3O)[C@H](N)C[C@@H]2N)[C@H](N)C[C@@H]1O` [tobramycin] showed a Kd [1] of 19.1 ± 1.1 µM, a Kd [2] of 4.3 ± 0.7 µM and a Kd [3, 6] of 0.009 ± 0.003 µM. For the same molecule, the Kd [3, 7] was 2.7 ± 0.3 µM, the Kd [4, 6] was 0.003 ± 0.001 µM and the Kd [4, 7] was 15.9 ± 0.7 µM. For the same molecule, the Kd [5, 6] was 0.012 ± 0.005 µM and the Kd [5, 7] was 13.2 ± 0.5 µM.
